# Reference: patent US20210002371A1, “COMBINATION OF AN ANTI-PD-L1 ANTIBODY AND IDO1 INHIBITOR FOR THE TREATMENT OF CANCER” (Merck Patent GmbH, priority 2017, published 2021)
# How the values were obtained:
# [1] = test system: IDO1 expressing mDCs co-cultured with PBMCs; assay: One-way Mixed Lymphocyte Reaction (MLR) assay, IFNγ production by ELISA; type: cell-based, human; conditions: M4112 5 μM, avelumab 0.61-10000 ng/mL
# Experimental: High levels of IDO1 in mDCs correlate with suppressed avelumab activity (IFNγ production) in the one-way MLR assay, which is reversed in an avelumab dose-dependent manner when M4112 is used in combination. Prior to the one-way MLR assay, imDCs from donor 17988 were treated with 1 μg/mL LPS for two days to obtain mDCs. Cells were stained with either an isotype control Phycoerythrin (PE) antibody or an anti-IDO1-PE antibody. (A-B) Stained cells were analyzed via FACS. Purple (solid curve) represents isotype control stained cells and green (transparent curve) represents IDO1-PE stained cells. […] On (C) Day 4 (Experiment A) or (D) Day 3 (Experiment B) of the MLR assay, IFNγ levels ([…]) were measured in the co-culture supernatant via IFNγ ELISA. […]
# This example describes the in vitro characterization of M4112, alone and in combination with the anti-tumor compound avelumab, using one-way Mixed Lymphocyte Reaction (MLR) assays. […] Using this functional assay, the immune IDO1 expressing cells (mDCs) were cultured with PBMCs in the presence or absence of the IDO1/TDO2 inhibitor, M4112, and the immune response was evaluated by looking at IFNγ production. […]
# A one-way MLR assay was performed with a 2.3:1 ratio of PBMC to mDC (stimulated with LPS) under two different conditions. […] Both experiments measured the change in IFNγ concentration using the optical density of a standard curve from an ELISA.
# [2] = test system: CT26-KSA colon carcinoma cells; assay: Anti-tumor efficacy in CT26-KSA tumor-bearing mice (s.c. colon carcinoma model); type: in vivo, BALB/c female mice; conditions: M4112 200 mg/kg p.o. 2x/day for 3 weeks, avelumab 400 μg i.v. Days 0, 3, 6
# Experimental: (§1) Tumor growth data are presented in graphical form as the mean and standard error of the mean (SEM) of tumor volumes every 3 or 4 days. Two-way repeated measures analysis of variance (RM ANOVA) with Tukey's post-test was performed to assess differences in tumor volumes between treatment groups. Treatment/Control (T/C) values were calculated as the mean tumor volume of the treatment group divided by the mean tumor volume of the control group on the last day of observation and are expressed as percentages. In all cases, p<0.05 was considered statistically significant. Kaplan Meier survival curves were analyzed by Log-Rank (Mantel-Cox) test. A Bonferroni-corrected significance threshold of p<0.0125 was used to account for multiple comparisons.
# The combination treatment of avelumab and M4112 in a CT26-KSA murine model was undertaken to evaluate the anti-tumor activity in BALB/c mice. […] The tumor volume, mice survival and mouse body weight were measured. […]
# CT26-KSA cells were cultured in RPMI-1640 medium containing 10% FBS, 2 mM L-glutamine, 0.1 mM non-essential amino acids (NEAA), 1 mM Na Pyruvate, 1% MEM vitamin solution and 1% G418 antibiotic (1 mg/mL). […] Cells were harvested by trypsinization with TrypLE Express and viable cell counts were determined using a Countess or hematocrit chamber cell counter and trypan blue exclusion staining. […]
# [3] = test system: MC38 colon carcinoma cells; assay: Anti-tumor efficacy in MC38 tumor-bearing mice (s.c. colon carcinoma model); type: in vivo, C57BL/6 female mice; conditions: Day 24; M4112 200 mg/kg p.o. 2x/day for 4 weeks; avelumab 400 μg i.v. Days 0, 2, 4; control = M4112 vehicle + isotype control
# Experimental: as §1
# The combination treatment of avelumab and M4112 in the MC38 murine model was undertaken to evaluate the anti-tumor activity in C57BL/6 mice. […] The tumor volume, mice survival and mouse body weight were measured.
# MC38 cells were cultured in DMEM containing 4.5 g/L D-glucose, 2 mM glutamine, and 110 mg/L sodium pyruvate and supplemented with 10% FBS, 0.1 mM MEM NEAA, and penicillin/streptomycin. […] Cells were harvested by trypsinization with TrypLE Express and viable cell counts were determined using a Countess or hematocrit chamber cell counter and trypan blue exclusion staining. […]
compound,measurement,setting,value
"NS(=O)(=O)[C@H]1CC[C@](F)(CC[C@H]2c3ccccc3-c3cncn32)CC1 [Compound M4112, c-4-fluoro-t-4-[(S)-2-(5H-imidazo[5,1-a]isoindol-5-yl)-ethyl]-cyclohexane-r-1-sulfonic acid amide]",avelumab activity (IFNγ production) in MLR,"[1]; Experiment A: IDO1-high mDCs, Day 4",the activity of avelumab was restored to normal levels
same,avelumab activity (IFNγ production) in MLR,"[1]; Experiment B: IDO1-low mDCs, Day 3",no change in avelumab activity
same,median survival time,[2]; CT26-KSA tumor-bearing mice,30.5 days
same,T/C (mean tumor volume of treatment group / mean tumor volume of control group),"[2]; Day 21, control = M4112 vehicle + isotype control",78%
same,T/C (mean tumor volume of treatment group / mean tumor volume of control group),[3],72%
